# Experimental data taken from patent publication US11767310B2, “Nicotinamide RIPK1 inhibitors” (AbbVie Inc., priority 2021, dated 2023).
# Read-outs that look alike come from different tables or passages of the source.
# What was measured:
# Experiment in all cases: Kinase binding screen
# Conditions in all cases: read-out: Percent Control at 100 nM Compound Concentration
# AKT2 = AKT2 (Homo sapiens (Human), UniProt P31751)
# CAMK2D = CAMK2D (Homo sapiens (Human), UniProt Q13557)
# CDK4 = CDK4 (Homo sapiens (Human), UniProt P11802)
# CDK7 = CDK7 (Homo sapiens (Human), UniProt P50613)
# CDKL2 = CDKL2 (Homo sapiens (Human), UniProt Q92772)
# CSNK1G1 = CSNK1G1 (Homo sapiens (Human), UniProt Q9HCP0)
# DMPK = DMPK (Homo sapiens (Human), UniProt Q09013)
# DYRK1A = DYRK1A (Homo sapiens (Human), UniProt Q13627)
# FYN = FYN (Homo sapiens (Human), UniProt P06241)
# IKK-epsilon = IKK-epsilon (Homo sapiens (Human), UniProt Q14164)
# IKK-epsilon, sequence (Q14164 whole entry): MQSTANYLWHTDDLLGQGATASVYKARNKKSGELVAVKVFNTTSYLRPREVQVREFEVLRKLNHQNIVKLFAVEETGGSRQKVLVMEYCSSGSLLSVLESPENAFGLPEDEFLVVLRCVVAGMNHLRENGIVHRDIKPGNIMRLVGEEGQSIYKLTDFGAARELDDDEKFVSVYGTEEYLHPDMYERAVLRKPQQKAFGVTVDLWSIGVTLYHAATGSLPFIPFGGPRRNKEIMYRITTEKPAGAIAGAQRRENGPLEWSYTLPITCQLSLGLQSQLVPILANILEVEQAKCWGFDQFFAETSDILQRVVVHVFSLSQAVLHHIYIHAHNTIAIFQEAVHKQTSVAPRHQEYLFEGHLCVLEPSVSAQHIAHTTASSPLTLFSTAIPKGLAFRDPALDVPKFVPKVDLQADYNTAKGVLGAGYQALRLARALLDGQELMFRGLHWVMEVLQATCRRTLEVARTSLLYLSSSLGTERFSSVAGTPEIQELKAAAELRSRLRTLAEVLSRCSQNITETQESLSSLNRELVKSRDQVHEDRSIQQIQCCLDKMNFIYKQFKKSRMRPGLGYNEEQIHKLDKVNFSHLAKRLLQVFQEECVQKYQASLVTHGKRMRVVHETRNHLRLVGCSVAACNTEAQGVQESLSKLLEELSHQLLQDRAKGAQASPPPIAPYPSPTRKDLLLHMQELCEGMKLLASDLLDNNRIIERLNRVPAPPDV
# IRAK4 = IRAK4 (Homo sapiens (Human), UniProt Q9NWZ3)
# KIT(D816H) = KIT(D816H) (Homo sapiens (Human), UniProt P10721, D816H)
# LYN = LYN (Homo sapiens (Human), UniProt P07948)
# MARK3 = MARK3 (Homo sapiens (Human), UniProt P27448)
# MYLK4 = MYLK4 (Homo sapiens (Human), UniProt Q86YV6)
# MYLK4, sequence (Q86YV6 whole entry): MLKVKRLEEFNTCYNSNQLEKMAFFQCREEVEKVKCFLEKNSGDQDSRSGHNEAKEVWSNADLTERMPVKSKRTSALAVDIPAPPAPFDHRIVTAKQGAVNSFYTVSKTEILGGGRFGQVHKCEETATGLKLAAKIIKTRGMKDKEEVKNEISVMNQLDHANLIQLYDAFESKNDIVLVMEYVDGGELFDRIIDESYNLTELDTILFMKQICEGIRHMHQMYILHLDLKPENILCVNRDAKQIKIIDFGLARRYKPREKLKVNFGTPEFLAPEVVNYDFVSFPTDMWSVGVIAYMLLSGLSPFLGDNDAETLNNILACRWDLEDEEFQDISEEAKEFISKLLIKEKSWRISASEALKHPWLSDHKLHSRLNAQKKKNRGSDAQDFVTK
# NEK4 = NEK4 (Homo sapiens (Human), UniProt P51957)
# p38-gamma = p38-gamma (Homo sapiens (Human), UniProt P53778)
# PFTAIRE2 = PFTAIRE2 (Homo sapiens (Human), UniProt Q96Q40)
# PHKG2 = PHKG2 (Homo sapiens (Human), UniProt P15735)
# PIKFYVE = PIKFYVE (Homo sapiens (Human), UniProt Q9Y2I7)
# PIM1 = PIM1 (Homo sapiens (Human), UniProt P11309)
# PKN1 = PKN1 (Homo sapiens (Human), UniProt Q16512)
# PKNB(M.tuberculosis) = PKNB(M.tuberculosis) (Mycobacterium tuberculosis (strain ATCC 25618 / H37Rv), UniProt P9WI81)
# RAF1 = RAF1 (Homo sapiens (Human), UniProt P04049)
# RAF1, sequence (P04049 whole entry): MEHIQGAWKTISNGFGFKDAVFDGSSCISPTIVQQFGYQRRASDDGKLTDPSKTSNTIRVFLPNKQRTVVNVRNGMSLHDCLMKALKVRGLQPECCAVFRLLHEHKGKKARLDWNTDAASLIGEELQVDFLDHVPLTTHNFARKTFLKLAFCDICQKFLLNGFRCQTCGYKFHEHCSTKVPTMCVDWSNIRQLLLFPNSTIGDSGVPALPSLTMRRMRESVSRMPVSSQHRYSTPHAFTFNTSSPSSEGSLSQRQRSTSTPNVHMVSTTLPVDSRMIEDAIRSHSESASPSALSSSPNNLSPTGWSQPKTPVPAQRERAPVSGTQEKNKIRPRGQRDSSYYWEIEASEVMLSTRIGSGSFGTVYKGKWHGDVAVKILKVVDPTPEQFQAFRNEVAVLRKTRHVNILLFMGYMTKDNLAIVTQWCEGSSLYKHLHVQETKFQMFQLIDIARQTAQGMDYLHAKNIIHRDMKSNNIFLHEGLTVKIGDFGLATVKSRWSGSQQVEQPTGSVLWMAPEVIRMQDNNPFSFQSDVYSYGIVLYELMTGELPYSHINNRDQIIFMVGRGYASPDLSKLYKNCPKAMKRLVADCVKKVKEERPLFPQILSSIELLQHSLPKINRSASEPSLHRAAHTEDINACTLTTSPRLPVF
# SGK = SGK (Homo sapiens (Human), UniProt O00141)
# TNNI3K = TNNI3K (Homo sapiens (Human), UniProt Q59H18)
# TNNI3K, sequence (Q59H18 whole entry): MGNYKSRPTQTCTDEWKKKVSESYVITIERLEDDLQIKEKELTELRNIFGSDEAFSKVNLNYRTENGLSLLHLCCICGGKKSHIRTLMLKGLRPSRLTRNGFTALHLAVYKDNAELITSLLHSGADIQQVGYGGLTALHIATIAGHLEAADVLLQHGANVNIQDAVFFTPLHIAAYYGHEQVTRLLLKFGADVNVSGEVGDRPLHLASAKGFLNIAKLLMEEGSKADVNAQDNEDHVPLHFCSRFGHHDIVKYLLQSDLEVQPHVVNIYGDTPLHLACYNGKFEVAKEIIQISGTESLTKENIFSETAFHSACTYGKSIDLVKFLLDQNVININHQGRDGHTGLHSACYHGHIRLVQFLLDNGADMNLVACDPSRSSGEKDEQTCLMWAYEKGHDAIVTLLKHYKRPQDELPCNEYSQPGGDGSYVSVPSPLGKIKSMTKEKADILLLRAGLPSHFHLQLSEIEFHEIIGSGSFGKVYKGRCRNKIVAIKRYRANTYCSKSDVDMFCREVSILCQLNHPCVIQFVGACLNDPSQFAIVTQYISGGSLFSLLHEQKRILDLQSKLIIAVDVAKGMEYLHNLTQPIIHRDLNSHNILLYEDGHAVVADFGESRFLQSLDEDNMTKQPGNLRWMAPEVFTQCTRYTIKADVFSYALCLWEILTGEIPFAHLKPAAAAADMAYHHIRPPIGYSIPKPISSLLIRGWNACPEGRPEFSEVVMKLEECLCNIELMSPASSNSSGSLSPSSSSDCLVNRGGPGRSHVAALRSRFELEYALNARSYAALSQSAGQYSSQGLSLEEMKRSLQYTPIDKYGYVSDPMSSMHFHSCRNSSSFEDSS
# TRPM6 = TRPM6 (Homo sapiens (Human), UniProt Q9BX84)
# TXK = TXK (Homo sapiens (Human), UniProt P42681)
# TXK, sequence (P42681 whole entry): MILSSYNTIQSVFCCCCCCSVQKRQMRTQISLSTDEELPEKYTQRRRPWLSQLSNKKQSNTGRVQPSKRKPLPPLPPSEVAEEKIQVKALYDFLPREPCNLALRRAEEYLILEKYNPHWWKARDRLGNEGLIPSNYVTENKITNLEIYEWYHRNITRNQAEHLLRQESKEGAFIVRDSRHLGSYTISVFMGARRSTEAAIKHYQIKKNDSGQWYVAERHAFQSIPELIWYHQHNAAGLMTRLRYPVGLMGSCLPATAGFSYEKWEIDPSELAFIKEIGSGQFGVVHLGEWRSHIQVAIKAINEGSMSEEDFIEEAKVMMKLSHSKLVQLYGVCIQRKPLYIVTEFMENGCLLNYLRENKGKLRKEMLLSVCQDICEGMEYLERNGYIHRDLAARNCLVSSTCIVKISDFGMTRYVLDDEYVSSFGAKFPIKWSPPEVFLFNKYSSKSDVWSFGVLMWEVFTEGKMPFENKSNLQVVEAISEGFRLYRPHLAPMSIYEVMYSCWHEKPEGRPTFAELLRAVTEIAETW
# VEGFR2 = VEGFR2 (Homo sapiens (Human), UniProt P35968)
# VEGFR2, sequence (P35968 20-1356): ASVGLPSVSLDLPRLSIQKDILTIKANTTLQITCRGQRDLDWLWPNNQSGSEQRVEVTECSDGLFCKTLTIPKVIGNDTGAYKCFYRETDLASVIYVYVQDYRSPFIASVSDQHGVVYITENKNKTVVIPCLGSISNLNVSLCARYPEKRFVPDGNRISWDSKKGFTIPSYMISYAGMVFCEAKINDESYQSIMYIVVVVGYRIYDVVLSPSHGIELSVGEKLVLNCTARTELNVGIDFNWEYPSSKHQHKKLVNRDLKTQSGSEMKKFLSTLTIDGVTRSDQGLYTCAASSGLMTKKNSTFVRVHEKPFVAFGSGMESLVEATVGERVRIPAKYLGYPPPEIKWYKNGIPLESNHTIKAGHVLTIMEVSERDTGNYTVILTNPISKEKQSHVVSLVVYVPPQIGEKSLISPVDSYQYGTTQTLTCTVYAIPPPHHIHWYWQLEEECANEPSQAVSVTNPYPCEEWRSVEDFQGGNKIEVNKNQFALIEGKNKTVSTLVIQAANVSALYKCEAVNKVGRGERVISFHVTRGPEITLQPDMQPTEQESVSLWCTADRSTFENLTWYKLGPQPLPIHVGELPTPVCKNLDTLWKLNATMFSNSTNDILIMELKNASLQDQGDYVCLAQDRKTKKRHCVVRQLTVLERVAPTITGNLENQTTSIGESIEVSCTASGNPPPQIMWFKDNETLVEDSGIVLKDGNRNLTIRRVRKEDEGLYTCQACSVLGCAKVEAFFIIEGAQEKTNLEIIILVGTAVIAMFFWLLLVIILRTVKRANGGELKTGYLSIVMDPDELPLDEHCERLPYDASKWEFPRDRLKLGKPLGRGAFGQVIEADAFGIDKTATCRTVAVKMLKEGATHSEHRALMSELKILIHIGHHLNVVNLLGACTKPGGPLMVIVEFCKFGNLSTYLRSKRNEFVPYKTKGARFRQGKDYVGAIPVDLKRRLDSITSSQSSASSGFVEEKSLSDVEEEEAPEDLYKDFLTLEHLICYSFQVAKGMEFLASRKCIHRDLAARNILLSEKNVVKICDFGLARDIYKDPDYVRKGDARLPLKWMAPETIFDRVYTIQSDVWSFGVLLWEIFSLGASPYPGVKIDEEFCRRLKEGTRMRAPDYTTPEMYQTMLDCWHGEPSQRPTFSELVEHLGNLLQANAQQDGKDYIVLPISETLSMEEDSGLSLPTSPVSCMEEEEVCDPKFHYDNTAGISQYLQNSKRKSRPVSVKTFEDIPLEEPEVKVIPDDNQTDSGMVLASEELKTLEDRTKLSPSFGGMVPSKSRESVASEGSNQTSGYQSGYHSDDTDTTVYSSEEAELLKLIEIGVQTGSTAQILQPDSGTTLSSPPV
# CAMK2D, sequence (Q13557 whole entry): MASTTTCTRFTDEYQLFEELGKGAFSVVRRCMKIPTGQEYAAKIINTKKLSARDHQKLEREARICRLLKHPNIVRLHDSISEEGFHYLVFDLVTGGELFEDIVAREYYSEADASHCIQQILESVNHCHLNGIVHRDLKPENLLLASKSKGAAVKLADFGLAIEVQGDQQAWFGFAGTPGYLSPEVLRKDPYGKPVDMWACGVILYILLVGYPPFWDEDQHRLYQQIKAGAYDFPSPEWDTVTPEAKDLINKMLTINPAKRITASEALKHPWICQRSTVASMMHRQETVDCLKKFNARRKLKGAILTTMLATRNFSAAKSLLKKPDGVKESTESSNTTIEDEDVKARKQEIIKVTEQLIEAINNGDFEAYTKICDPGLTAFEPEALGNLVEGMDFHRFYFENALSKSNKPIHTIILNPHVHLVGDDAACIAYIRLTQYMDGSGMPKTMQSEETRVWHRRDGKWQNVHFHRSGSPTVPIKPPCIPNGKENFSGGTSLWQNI
smiles,measurement,setting,value
"CN(C[C@@H](O)Cc1ccccc1)C(=O)c1cncc(C#Cc2cnn(C(F)F)c2)c1 [Example 2, (S)-5-((1-(difluoromethyl)-1H-pyrazol-4-yl)ethynyl)-N-(2-hydroxy-3-phenylpropyl)-N-methylnicotinamide]",remaining activity at 0.1 µM,AKT2; AKT2,99%
same,remaining activity at 0.1 µM,CAMK2D; CAMK2D,100%
same,remaining activity at 0.1 µM,CDK4; CDK4,100%
same,remaining activity at 0.1 µM,CDK7; CDK7,100%
same,remaining activity at 0.1 µM,CDKL2; CDKL2,100%
same,remaining activity at 0.1 µM,CSNK1G1; CSNK1G1,100%
same,remaining activity at 0.1 µM,DMPK; DMPK,100%
same,remaining activity at 0.1 µM,DYRK1A; DYRK1A,90%
same,remaining activity at 0.1 µM,FYN; FYN,100%
same,remaining activity at 0.1 µM,IKK-epsilon; IKK-epsilon,100%
same,remaining activity at 0.1 µM,IRAK4; IRAK4,91%
same,remaining activity at 0.1 µM,KIT(D816H); KIT(D816H),100%
same,remaining activity at 0.1 µM,LYN; LYN,71%
same,remaining activity at 0.1 µM,MARK3; MARK3,98%
same,remaining activity at 0.1 µM,MYLK4; MYLK4,99%
same,remaining activity at 0.1 µM,NEK4; NEK4,100%
same,remaining activity at 0.1 µM,p38-gamma; p38-gamma,100%
same,remaining activity at 0.1 µM,PFTAIRE2; PFTAIRE2,100%
same,remaining activity at 0.1 µM,PHKG2; PHKG2,100%
same,remaining activity at 0.1 µM,PIKFYVE; PIKFYVE,57%
same,remaining activity at 0.1 µM,PIM1; PIM1,98%
same,remaining activity at 0.1 µM,PKN1; PKN1,91%
same,remaining activity at 0.1 µM,PKNB(M.tuberculosis),100%
same,remaining activity at 0.1 µM,RAF1; RAF1,100%
same,remaining activity at 0.1 µM,SGK; SGK,96%
same,remaining activity at 0.1 µM,TNNI3K; TNNI3K,100%
same,remaining activity at 0.1 µM,TRPM6; TRPM6,99%
same,remaining activity at 0.1 µM,TXK; TXK,100%
same,remaining activity at 0.1 µM,VEGFR2; VEGFR2,96%
"CN(C[C@H](Cc1ccccc1)OP(=O)(O)O)C(=O)c1cncc(C#Cc2cnn(C(F)F)c2)c1 [Example 19, (S)-1-(5-((1-(difluoromethyl)-1H-pyrazol-4-yl)ethynyl)-N-methylnicotinamido)-3-phenylpropan-2-yl dihydrogen phosphate]",remaining activity at 0.1 µM,AKT2,90%
same,remaining activity at 0.1 µM,CAMK2D,100%
same,remaining activity at 0.1 µM,CDK4,93%
same,remaining activity at 0.1 µM,CDK7,100%
same,remaining activity at 0.1 µM,CDKL2,95%
same,remaining activity at 0.1 µM,CSNK1G1,100%
same,remaining activity at 0.1 µM,DMPK,100%
same,remaining activity at 0.1 µM,DYRK1A,85%
same,remaining activity at 0.1 µM,FYN,100%
same,remaining activity at 0.1 µM,IKK-epsilon,94%
same,remaining activity at 0.1 µM,IRAK4,83%
same,remaining activity at 0.1 µM,KIT(D816H),98%
same,remaining activity at 0.1 µM,LYN,80%
same,remaining activity at 0.1 µM,MARK3,97%
same,remaining activity at 0.1 µM,MYLK4,100%
same,remaining activity at 0.1 µM,NEK4,100%
same,remaining activity at 0.1 µM,p38-gamma,88%
same,remaining activity at 0.1 µM,PFTAIRE2,100%
same,remaining activity at 0.1 µM,PHKG2,100%
same,remaining activity at 0.1 µM,PIKFYVE,57%
same,remaining activity at 0.1 µM,PIM1,100%
same,remaining activity at 0.1 µM,PKN1,100%
same,remaining activity at 0.1 µM,PKNB(M.tuberculosis),100%
same,remaining activity at 0.1 µM,RAF1,100%
same,remaining activity at 0.1 µM,SGK,90%
same,remaining activity at 0.1 µM,TNNI3K,100%
same,remaining activity at 0.1 µM,TRPM6,95%
same,remaining activity at 0.1 µM,TXK,100%
same,remaining activity at 0.1 µM,VEGFR2,97%
